From article PMC5354766, “The expression of Nectin-4 on the surface of ovarian cancer cells alters their ability to adhere, migrate, aggregate, and proliferate” (Oncotarget, 2016) come the findings set out here.

In assay [1] the test system is NIH:OVCAR5 cells. The assay is described as follows: Wound healing (cell migration) assay after mitomycin C treatment. Format: cell-based, human. As to conditions: 25 μg/ml mitomycin C for 3 h. Here is the method:
Cells were diluted to a concentration of 700,000-10^6 cells/ml in complete media, and 70 μl was plated into each chamber (0.22 cm^2 growth area) of an ibidi® wound-healing culture-insert (ibidi® Verona, WI) in triplicate in a 100 × 20 mm dish (Corning, Falcon, Corning NY). Cells were grown overnight at 37°C in a humidified incubator with 5% CO2 or until the chambers were confluent, prior to removal of the culture insert. Migrating cells were incubated in OptiMEM® containing 10 μM lysophosphatidic acid (LPA Cayman Chemical, Ann Arbor, MI) and photographed initially (t = 0 h), and then up to 48 h with a 4X objective. Image analysis was performed using ImageJ software with the Scratch Assay Analyzer from the MiToBo plug in. Three independent experiments were performed on each cell line.
(§1) Mitomycin C (Sigma-Aldrich, M287) was reconstituted at 0.4 mg/ml in PBS, pH 7.4, according to the supplier's instructions. Prior to spheroid assays, adherent NIH:OVCAR5 cells were pretreated for 3 hours at 37°C, in a tissue culture flask 10 μg/ml mitomycin C diluted in complete RPMI media. Flasks were rinsed with PBS and cells were detached as described for the spheroid assay. For migration assays, cells were plated in ibidi® wound-healing culture-insert incubated overnight, then the media was removed from the culture inserts and replaced with 25 μg/ml mitomycin C in complete RPMI. After 3 hours at 37°C, the culture inserts were removed and the cells were washed with PBS and cell migration was measured as described above.

Assay [2] deals with NIH:OVCAR5 cells. The assay is described as follows: Spheroid formation after mitomycin C treatment. Format: cell-based, human. The conditions noted are these: 10 μg/ml mitomycin C for 3 h, spheroids after 24 h. Here is the method:
Spheroids were formed from the cell lines described above using the liquid overlay method. One milliliter of a single cell suspension was seeded at a concentration of 50,000 cells/ml in complete media, into 24-well tissue culture plates coated with 0.5% Seakem agarose (in complete media). Plates were incubated at 37°C in a humidified incubator with 5% CO2. At various time points up to 5 days, the plates were removed from the incubator and the spheroids were photographed with a Nikon CoolPix digital camera mounted on an Olympus CK2 inverted microscope with a 4X objective. The size of the spheroids was determined using the measure tool in Adobe Photoshop. The largest spheroids were quantified (20-90 spheroids/well) in a minimum of 8 wells, for a total of >300 spheroids per cell type.
as §1

For assay [3], the system named is NIH:OVCAR5-N4-over cells adhering to recombinant human Nectin-1 extracellular domain. The conditions noted are these: 1 h.
Assay [4] has the same test system. Kind of assay: Peptide screen in the cell adhesion assay at 150 μg/ml. In kind it is cell-based. The conditions noted are these: peptide 0.15 mg/ml; 0.5 μg/well Nectin-1 (R&D Systems); relative to DMSO control; Figure 4A. As to the method:
Black, clear-bottom 96-well microtiter plates (Corning, Imported Costar, Corning, NY) were coated with various concentrations of recombinant human Nectin-1 extracellular domain (R&D Systems or Acrobiosystems, Newark, DE), recombinant human Nectin-4 extracellular domain (R&D Systems), or bovine serum albumin (BSA; Probumin Diagnostic Grade, MilliPore) diluted in PBS. Covered plates were incubated overnight at 37°C in a humidified incubator. After washing with PBS plus Ca^2+/Mg^2+ containing 2 mg/ml ovalbumin (Sigma-Aldrich), the plates were blocked for 1 h at 37°C with 1% BSA in PBS without Ca^2+/Mg^2+. Confluent monolayers of NIH:OVCAR5 cells or NIH:OVCAR5-N4-over cells were detached with Accutase, and then filtered through a 40 μm cell strainer (BD Biosciences, San Jose, CA) to remove cell aggregates. The single cells were stained with CellTracker Green CMFDA (5-chloromethylfluorescein diacetate; Invitrogen™) according to the manufacturer's protocol. After washing the plate, 30,000 cells were added to each well in 50 μl of RPMI 1640 media containing 2 mg/ml ovalbumin and allowed to adhere for 15-60 min at 37°C. Plates were vigorously washed four times and read in a BioTek Synergy fluorescent microplate reader (BioTek, Winooski, VA). Experiments were conducted in triplicate.
Microtiter plates coated with 0.5 μg/well recombinant human Nectin-1 extracellular domain (R&D Systems) as described above were pre-incubated for 30 min at room temperature with 150 μg/ml Nectin-4 peptides in PBS in triplicate. CMFDA-stained NIH:OVCAR5-N4-over cells were then added to the wells and cell adhesion was quantified after a 30 min incubation as described above. In parallel studies, CMFDA-stained NIH:OVCAR5-N4-over cells were pre-incubated for 30 min at room temperature with 150 μg/ml Nectin-1 peptides in PBS in triplicate, and then the cells and peptides were added to the 96-well plate followed by a 30 min incubation. […] Dose curves were conducted as described above, except the microtiter plates were coated with 0.25 μg/well recombinant human Nectin-1 extracellular domain (Acrobiosystems), and the peptides and scrambled controls were diluted from 0.01-200 μg/ml.

Where no end group is shown, it is not given here.

As to `CO[C@@]12[C@H](COC(N)=O)C3=C(C(=O)C(C)=C(N)C3=O)N1C[C@@H]1N[C@@H]12` [mitomycin C], the “Effect on migration in wound healing assay” value with NIH:OVCAR5 cells [1] (NIH:OVCAR5 cells that over-express Nectin-4, 24 h) was “almost completely inhibited migration”. For the same compound, the “Exposed wound area covered by migrating cells in 24 h” value with NIH:OVCAR5 cells [1] (NIH:OVCAR5 control cells, untreated cells completely closed the wound) came to 50%. The “Migration (wound area covered) in 24 h” value with NIH:OVCAR5 cells [1] (Nectin-4 knock-down cells N4-KD-VB3, untreated cells 25%) was 16%. Besides, the “Spheroid size with vs without treatment” value is on record as “essentially unchanged” in the assay on NIH:OVCAR5 cells [2] (NIH:OVCAR5-N4-KD cells), “essentially unchanged” in the assay on NIH:OVCAR5 cells [2] (NIH:OVCAR5-N4-over cells) and “somewhat smaller” in the assay with NIH:OVCAR5 cells [2] (NIH:OVCAR5 control cells).
Regarding ACIVNYHMDRFKES-NH2 [N1-P17], the “IC50 (mg/ml), inhibition of binding of OVCAR5-N4-over cells to recombinant Nectin-1” value in assay [3] worked out at 0.006 mg/mL.
Consider “CLSEGQPPPSYNWT [N4-P21, Synthetic peptide from Nectin-4 extracellular domain, IgC2]”, for which the “Promotion of cell adhesion” value in assay [4] is approximately 1.5 fold.
Still for that read-out and setting: the figure for “LWHIGREGAMLKCL [N4-P20, Synthetic peptide from Nectin-4 extracellular domain, IgC2]” is approximately 1.5 fold.
For the compound NWYLQRMDVKLTCK-NH2 [N1-P20], the “IC50 (mg/ml), inhibition of binding of OVCAR5-N4-over cells to recombinant Nectin-1” value in assay [3] turned out to be 0.018 mg/mL.
With QRITHILHVSFLAE-NH2 [N4-P18], in assay [3], the “IC50 (mg/ml), inhibition of binding of OVCAR5-N4-over cells to recombinant Nectin-1” value came out at 0.041 mg/mL.
Turning to “RVDGDTLGFPPLTT [N4-P23, Synthetic peptide from Nectin-4 extracellular domain, IgC2]”, in assay [4], the “Promotion of cell adhesion” value is approximately 1.5 fold.
On to “TTEHSGIYVCHVSN [N4-P24, Synthetic peptide from Nectin-4 extracellular domain, IgC2]”, for which the “Promotion of cell adhesion” value in assay [4] is approximately 1.5 fold.
On to WTRLDGPLPSGVRV-NH2 [N4-P22], for which, in assay [3], the “IC50 (mg/ml), inhibition of binding of OVCAR5-N4-over cells to recombinant Nectin-1” value was 0.028 mg/mL.
